Calls of active or inactive are those of the source.
How the values were obtained:
Assay type in all cases: functional
BJ = experiment: BJ-TERT-LT-ST fibroblast viability loss – cell-based, RAS-independent, luminescence, dose response (AID 1935); conditions: Homo sapiens;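 note: BJ fibroblasts immortalized with TERT plus LT and ST oncogenes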
[1] = biological target: Calcium/calmodulin-dependent protein kinase type II subunit gamma (Homo sapiens, UniProt Q13555)
[2] = biological target: Serine/threonine-protein kinase pim-1 (Homo sapiens, UniProt P11309)
[3] = biological target: MAP kinase-activated protein kinase 5 (Homo sapiens, UniProt Q8IW41);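 note: measured as one member of a kinome panel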
[4] = biological target: Tyrosine-protein kinase BTK (Homo sapiens, UniProt Q06187)
[5] = biological target: Tyrosine-protein kinase Lyn (Homo sapiens, UniProt P07948);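 note: lyn as one member of a kinase panel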
[6] = biological target: Mitogen-activated protein kinase 9 (Homo sapiens, UniProt P45984);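 note: value from a kinome panel profiling assay, MAPK9 panel entry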
[7] = biological target: Serine/threonine-protein kinase N2 (Homo sapiens, UniProt Q16513)
[8] = biological target: Receptor-type tyrosine-protein kinase FLT3 (Homo sapiens, UniProt P36888);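 note: FLT3 was tested as one member of a kinome-wide kinase panel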
Ephrin type-A receptor 2 = Ephrin type-A receptor 2 (Homo sapiens, UniProt P29317);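 note: EPHA2 tested as one member of a kinome-wide kinase panel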
[9] = biological target: Protein kinase C iota type (Homo sapiens, UniProt P41743);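 note: measured within a kinome-wide kinase panel, PRKCI as panel member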
[10] = biological target: 3-phosphoinositide-dependent protein kinase 1 (Homo sapiens, UniProt O15530);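 note: value comes from the Navigating the Kinome panel, PDPK1 member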
[11] = biological target: Vascular endothelial growth factor receptor 1 (Homo sapiens, UniProt P17948);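 note: measured within a kinome-wide profiling panel, FLT1 as the panel member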
[12] = biological target: STE20-like serine/threonine-protein kinase (Homo sapiens, UniProt Q9H2G2)
[13] = biological target: Glycogen synthase kinase-3 beta (Homo sapiens, UniProt P49841);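 note: value comes from a broad kinome profiling panel, with GSK3B as the panel member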
Glycogen synthase kinase-3 beta, sequence (P49841 whole entry): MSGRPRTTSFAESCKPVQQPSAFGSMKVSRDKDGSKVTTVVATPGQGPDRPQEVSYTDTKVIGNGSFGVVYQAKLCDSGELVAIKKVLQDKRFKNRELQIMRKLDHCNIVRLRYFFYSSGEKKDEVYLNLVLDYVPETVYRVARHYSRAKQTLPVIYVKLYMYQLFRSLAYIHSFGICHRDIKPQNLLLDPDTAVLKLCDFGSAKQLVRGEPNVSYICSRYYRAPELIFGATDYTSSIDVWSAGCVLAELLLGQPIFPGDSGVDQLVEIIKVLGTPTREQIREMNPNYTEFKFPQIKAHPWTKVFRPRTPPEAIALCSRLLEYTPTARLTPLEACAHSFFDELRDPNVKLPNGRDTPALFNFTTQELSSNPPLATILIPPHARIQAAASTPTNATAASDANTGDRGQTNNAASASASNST

Tyrosine-protein kinase Lyn, sequence (P07948 whole entry): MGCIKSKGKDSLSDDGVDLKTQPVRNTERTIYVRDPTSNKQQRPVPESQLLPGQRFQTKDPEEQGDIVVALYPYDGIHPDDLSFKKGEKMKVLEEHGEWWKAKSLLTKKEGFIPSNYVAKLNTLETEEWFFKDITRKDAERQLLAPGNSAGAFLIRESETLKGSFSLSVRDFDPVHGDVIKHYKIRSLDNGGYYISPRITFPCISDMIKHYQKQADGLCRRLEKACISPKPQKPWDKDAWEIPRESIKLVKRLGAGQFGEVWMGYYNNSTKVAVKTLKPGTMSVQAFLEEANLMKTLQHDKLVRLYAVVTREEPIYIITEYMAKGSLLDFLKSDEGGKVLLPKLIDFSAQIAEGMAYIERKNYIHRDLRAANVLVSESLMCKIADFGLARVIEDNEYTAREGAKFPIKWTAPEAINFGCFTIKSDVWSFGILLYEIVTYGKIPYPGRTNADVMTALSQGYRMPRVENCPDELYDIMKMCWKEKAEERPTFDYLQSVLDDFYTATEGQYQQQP
Calcium/calmodulin-dependent protein kinase type II subunit gamma, sequence (Q13555 whole entry): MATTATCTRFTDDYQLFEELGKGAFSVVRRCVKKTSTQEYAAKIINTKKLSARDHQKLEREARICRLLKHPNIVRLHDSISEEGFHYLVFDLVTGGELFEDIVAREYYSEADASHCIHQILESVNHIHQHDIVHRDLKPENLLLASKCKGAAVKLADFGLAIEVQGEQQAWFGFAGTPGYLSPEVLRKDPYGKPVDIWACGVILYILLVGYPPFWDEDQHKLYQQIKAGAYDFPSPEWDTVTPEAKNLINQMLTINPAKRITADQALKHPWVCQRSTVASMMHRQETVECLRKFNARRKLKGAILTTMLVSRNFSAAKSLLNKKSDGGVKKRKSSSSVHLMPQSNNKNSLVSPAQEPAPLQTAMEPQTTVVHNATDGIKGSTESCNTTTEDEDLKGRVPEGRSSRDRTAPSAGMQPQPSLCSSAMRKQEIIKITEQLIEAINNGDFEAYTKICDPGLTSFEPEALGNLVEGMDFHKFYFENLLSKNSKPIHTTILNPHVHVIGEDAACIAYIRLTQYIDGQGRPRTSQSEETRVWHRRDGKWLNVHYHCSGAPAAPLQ
Receptor-type tyrosine-protein kinase FLT3, sequence (P36888 whole entry): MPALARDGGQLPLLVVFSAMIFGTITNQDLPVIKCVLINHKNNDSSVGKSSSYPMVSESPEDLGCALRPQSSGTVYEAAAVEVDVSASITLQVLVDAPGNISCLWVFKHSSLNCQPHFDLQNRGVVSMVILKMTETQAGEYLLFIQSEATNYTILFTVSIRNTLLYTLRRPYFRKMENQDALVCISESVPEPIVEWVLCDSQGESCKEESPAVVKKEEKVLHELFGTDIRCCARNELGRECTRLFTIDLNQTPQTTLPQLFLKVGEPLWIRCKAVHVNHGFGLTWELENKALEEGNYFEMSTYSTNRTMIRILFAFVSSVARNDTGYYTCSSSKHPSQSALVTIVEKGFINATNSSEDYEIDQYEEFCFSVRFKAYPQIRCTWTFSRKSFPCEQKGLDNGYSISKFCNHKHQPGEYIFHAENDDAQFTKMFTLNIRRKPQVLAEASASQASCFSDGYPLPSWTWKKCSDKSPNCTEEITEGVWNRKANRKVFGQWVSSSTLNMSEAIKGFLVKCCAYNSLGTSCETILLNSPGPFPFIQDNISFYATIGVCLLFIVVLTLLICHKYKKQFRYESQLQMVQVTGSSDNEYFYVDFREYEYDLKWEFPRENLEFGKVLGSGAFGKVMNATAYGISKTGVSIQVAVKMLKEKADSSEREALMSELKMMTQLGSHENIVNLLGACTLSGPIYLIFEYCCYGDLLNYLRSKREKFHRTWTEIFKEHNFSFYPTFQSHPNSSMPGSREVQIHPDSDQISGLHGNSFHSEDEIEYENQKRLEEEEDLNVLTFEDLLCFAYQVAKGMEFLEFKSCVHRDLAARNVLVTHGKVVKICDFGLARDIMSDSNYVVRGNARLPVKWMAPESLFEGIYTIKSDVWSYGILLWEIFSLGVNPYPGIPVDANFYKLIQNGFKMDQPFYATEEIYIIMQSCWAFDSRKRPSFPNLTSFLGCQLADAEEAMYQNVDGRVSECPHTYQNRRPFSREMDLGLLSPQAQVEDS
Serine/threonine-protein kinase pim-1, sequence (P11309 whole entry): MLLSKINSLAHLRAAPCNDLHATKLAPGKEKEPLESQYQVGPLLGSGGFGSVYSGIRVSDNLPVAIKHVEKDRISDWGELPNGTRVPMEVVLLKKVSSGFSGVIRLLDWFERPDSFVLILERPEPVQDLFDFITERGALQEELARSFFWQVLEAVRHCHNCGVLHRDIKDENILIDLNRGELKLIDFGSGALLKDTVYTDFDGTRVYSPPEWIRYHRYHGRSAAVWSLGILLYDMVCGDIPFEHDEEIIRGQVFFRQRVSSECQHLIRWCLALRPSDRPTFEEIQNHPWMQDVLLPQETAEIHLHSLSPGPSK
Mitogen-activated protein kinase 9, sequence (P45984 whole entry): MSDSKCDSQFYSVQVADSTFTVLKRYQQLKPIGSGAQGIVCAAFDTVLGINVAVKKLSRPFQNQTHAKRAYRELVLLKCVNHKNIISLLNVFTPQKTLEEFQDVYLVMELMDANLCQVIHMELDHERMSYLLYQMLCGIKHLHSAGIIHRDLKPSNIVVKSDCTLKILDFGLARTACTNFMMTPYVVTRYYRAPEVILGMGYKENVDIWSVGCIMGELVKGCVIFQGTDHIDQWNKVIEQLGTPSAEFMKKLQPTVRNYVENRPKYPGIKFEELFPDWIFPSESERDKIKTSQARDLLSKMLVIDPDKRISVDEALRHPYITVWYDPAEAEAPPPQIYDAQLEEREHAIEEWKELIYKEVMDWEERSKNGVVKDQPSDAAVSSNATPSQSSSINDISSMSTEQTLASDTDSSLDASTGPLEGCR
MAP kinase-activated protein kinase 5, sequence (Q8IW41 whole entry): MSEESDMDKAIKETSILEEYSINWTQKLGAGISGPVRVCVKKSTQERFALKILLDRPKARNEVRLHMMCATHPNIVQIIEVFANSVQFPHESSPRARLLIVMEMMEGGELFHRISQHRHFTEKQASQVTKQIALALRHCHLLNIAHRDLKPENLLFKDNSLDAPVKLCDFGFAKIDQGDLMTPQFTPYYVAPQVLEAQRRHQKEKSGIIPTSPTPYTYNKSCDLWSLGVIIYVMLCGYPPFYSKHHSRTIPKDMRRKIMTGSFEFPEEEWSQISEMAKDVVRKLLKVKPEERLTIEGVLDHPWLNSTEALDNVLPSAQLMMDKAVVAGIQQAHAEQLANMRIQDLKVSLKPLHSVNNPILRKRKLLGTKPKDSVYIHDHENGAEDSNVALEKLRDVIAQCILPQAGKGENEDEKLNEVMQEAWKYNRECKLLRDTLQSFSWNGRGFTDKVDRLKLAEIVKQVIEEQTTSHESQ
3-phosphoinositide-dependent protein kinase 1, sequence (O15530 whole entry): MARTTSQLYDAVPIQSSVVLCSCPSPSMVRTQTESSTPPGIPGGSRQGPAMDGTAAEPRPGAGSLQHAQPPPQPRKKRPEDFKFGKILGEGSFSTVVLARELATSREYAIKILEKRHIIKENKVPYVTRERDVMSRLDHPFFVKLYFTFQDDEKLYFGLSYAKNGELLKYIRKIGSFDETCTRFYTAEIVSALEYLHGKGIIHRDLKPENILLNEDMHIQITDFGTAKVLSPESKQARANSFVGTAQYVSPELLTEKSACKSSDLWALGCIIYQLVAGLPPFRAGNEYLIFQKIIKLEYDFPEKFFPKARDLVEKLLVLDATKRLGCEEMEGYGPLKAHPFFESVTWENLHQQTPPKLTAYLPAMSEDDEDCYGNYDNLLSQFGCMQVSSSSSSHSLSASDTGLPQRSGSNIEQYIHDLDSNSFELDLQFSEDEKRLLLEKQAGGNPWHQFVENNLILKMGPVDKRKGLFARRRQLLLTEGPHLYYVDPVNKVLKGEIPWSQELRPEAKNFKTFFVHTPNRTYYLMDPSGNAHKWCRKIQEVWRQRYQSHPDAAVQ
Tyrosine-protein kinase BTK, sequence (Q06187 whole entry): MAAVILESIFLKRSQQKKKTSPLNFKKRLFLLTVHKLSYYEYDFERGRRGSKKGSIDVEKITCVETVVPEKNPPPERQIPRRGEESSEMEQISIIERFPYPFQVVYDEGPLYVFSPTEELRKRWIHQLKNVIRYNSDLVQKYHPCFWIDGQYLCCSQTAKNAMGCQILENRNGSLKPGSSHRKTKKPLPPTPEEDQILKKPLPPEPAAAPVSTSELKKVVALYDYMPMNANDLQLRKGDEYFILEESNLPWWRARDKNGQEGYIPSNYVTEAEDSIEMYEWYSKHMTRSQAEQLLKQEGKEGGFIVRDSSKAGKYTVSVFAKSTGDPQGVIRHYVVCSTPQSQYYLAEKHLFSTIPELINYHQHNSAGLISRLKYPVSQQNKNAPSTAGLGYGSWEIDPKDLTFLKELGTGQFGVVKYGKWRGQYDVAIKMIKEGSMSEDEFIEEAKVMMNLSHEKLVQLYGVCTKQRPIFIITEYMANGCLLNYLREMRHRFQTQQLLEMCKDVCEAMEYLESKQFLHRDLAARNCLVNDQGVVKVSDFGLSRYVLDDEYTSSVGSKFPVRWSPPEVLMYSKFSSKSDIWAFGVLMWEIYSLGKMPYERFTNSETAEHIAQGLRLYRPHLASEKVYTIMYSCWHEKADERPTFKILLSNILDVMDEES

Ki [1]	Ki [2]	Ki [3]	Ki [4]	Ki [5]	Ki [6]	Ki [7]	Ki [8]	Ki (Ephrin type-A receptor 2)	Ki [9]	Ki [10]	Ki [11]	Ki [12]	Ki [13]	SMILES	EC50 (BJ)
–	–	–	–	–	–	–	–	–	–	–	–	–	–	COc1ccc(-c2nnc(NC(=O)c3ccc(F)cc3)o2)cc1	> 150000 nM (not active)
> 6310 nM (inactive)	316 nM (active)	> 1580 nM (inactive)	> 1260 nM (inactive)	> 1580 nM (inactive)	> 3980 nM (inactive)	25.1 nM (active)	1580 nM (active)	> 3160 nM (inactive)	31.6 nM (active)	> 3980 nM (inactive)	> 398 nM (inactive)	1580 nM (active)	63.1 nM (active)	CCn1c(-c2nonc2N)nc2cnc(Oc3cccc(NC(=O)c4ccc(OCCN5CCOCC5)cc4)c3)cc21 [GSK-269962A]	–

From ChEMBL document CHEMBL1201862, “PubChem BioAssay data set” (2004)
